Read-outs that look alike come from different tables or passages of the source.
Key:
[1] = Equilibrium dialysis, fraction unbound in plasma; assay type: in vitro ADME, human; conditions: for fraction unbound at 16 h: pH 7.4, 16 h equilibrium dialysis
Protocol: (§1) Equilibrium dialysis was employed to measure the fraction unbound of analytes in plasma, brain, and brain tumor tissue homogenates using 96-well DispoEquilibrium Dialyzer plates with a 10 kDa cut-off regenerated cellulose membrane. Dialysis was performed using 180 μL of human plasma or tissue homogenate against an equal volume of PBS (pH 7.4) in a dual-plate rotator (Harvard Apparatus, Holliston, MA, USA). Equilibrium time was initially optimized by analyzing samples after 2, 4, 6, 8, 16, and 24 h of dialysis at concentrations of 20 and 200 nM in human plasma and brain homogenate. The dialysates were collected and processed as described in Sections 2.3.2 and 2.3.3. The recovery of analytes was calculated as the ratio of analyte concentration after dialysis (sum of concentrations found in PBS and matrix fractions) to the total concentration to ensure the reliability and reproducibility of the assay. The experiments were repeated at least three times, and each sample in triplicate and average fraction unbound values were determined.
(§2) The fraction unbound in plasma (fu, plasma) and tissue homogenate (fu, hom) was evaluated as the analyte concentration ratio of post-dialysis PBS (cu) to post-dialysis plasma (cp, Eq. (1)) or homogenate (chom, Eq. (2)).(1) fu,plasma =cu/cp (2) fu,hom =cu/chom
(§3) Unbound drug levels in the actual plasma and brain tumor tissue were measured using dialysis for 16 h to reach equilibrium. The mean of fraction unbound values determined in five patient samples was calculated.

[2] = Equilibrium dialysis, fraction unbound in brain homogenate; assay type: in vitro ADME, human; conditions: for fraction unbound at 16 h: pH 7.4, human brain homogenate spiked at 20 and 200 nM, 16 h equilibrium dialysis, read-out: Fraction unbound (fu), Brain; for Plasma protein binding compared to binding to brain tissue components (ratio): spiked pooled human plasma vs human brain homogenate
Protocol: as §1, §2
(§4) The fraction unbound in the actual tissue (fu, tissue) was obtained by incorporating the unbound fraction in the tissue homogenate (fu, hom) and the dilution factor (Df) into Eq. (3).(3) fu,tissue = fu,hom/[Df - (Df - 1)fu,hom]

[3] = Equilibrium dialysis, fraction unbound in patient brain tumor tissue; assay type: in vitro ADME; conditions: human, five patients, 16 h equilibrium dialysis
Protocol: as §1, §2, §4, §3
(§5) The validated bioanalytical method was employed to investigate analytes pharmacokinetics in the plasma, brain tumor, and CSF in GBM patients (ClinicalTrials.gov identifier: NCT04391595). The protocol was reviewed and approved by the Institutional Review Board of the Barrow Neurological Institute, St. Joseph's Hospital and Medical Center (Phoenix, AZ, USA). All patients enrolled in the trial provided written informed consent. […] Blood, CSF, and GBM tissue (including gadolinium-contrast enhancing and non-enhancing regions) samples were obtained intra-operatively from each patient on the […] on the planned operation day. Blood was centrifuged at 4 °C and 3,000 r/min for 10 min; plasma was subsequently collected. Brain tumors were resected 7–9 h after the last dose was administered. Once resected, the tissue samples were rinsed with PBS, paper dried, and freshly frozen in liquid nitrogen. The samples were then stored at −80 °C in a freezer for later analysis.

[4] = Levels in intraoperatively collected CSF of GBM patients; assay type: in vivo; conditions: human, po, five GBM patients, oral LY3214996 200 mg once daily and abemaciclib 150 mg twice daily for 5 days, intraoperative CSF
Protocol: Blank brain and clinical brain tumor tissue homogenates were prepared at 1:9 (m/V) ratio with PBS. The samples were homogenized at a speed of 6.00 m/s for 40 s for three cycles using a Bead Ruptor Elite homogenizer (Omni International, Kennesaw, GA, USA). Plasma was used as a surrogate matrix when preparing calibration curves for brain and brain tumor homogenates and CSF as well as for the PBS fraction after sample dialysis. To minimize matrix differences, all plasma samples were spiked with PBS, while all non-plasma samples were spiked with plasma. Extraction of the analyte and IS was facilitated by protein precipitation using methanol-containing IS precipitation solution. Samples (70 μL) spiked with PBS or plasma were precipitated using 400 μL of IS precipitation solution. After centrifugation at 12,000 r/min for 10 min at 4 °C, the supernatant was transferred for LC-MS/MS analysis.
as §5

[5] = Analyte stability in brain homogenate; assay type: physicochemical, human; conditions: for Freeze-thaw stability, Accuracy / Freeze-thaw stability, Mean concentration / Freeze-thaw stability, Difference: 3 cycles; for Freeze-thaw stability, Difference / Benchtop stability, Difference / Processed sample stability, Difference / Autosampler stability (5 °C), Difference / Long-term stability (−20 °C), Difference: vs freshly processed QC; for Benchtop stability, Accuracy / Benchtop stability, Mean concentration / Benchtop stability, Difference: 6 h; for Processed sample stability, Accuracy / Processed sample stability, Mean concentration / Processed sample stability, Difference: 22 h; for Autosampler stability (5 °C), Accuracy / Autosampler stability (5 °C), Mean concentration / Autosampler stability (5 °C), Difference: 96 h; for Long-term stability (−20 °C), Mean concentration / Long-term stability (−20 °C), Difference / Long-term stability (−20 °C), Accuracy: 39 days
Protocol: The stability of the analytes was studied under various storage and processing conditions. […] Short- and long-term stability studies of all analytes were conducted in human blank plasma and brain homogenate under several storage conditions. Analyte stability in biological matrices was analyzed using freshly prepared calibration standards and QC samples. The percentage difference between the stability and freshly processed QC was also assessed. Re-injection reproducibility was evaluated within the sample stability period in the autosampler. Analytes were considered stable if the accuracy at each level was ±15.0% of the nominal value. Additionally, the difference from corresponding comparison QC samples must be within ±15.0%.

[6] = human, plasma of five GBM patients, read-out: Fraction unbound (fu), Plasma (patients)
[7] = pooled human plasma spiked at 20 and 200 nM, read-out: Fraction unbound (fu), Plasma (pooled)
[8] = pH 7.4, gadolinium contrast enhancing GBM region, read-out: Fraction unbound (fu), GBM (E)
[9] = pH 7.4, gadolinium contrast non-enhancing GBM region, read-out: Fraction unbound (fu), GBM (NE)

fraction unbound at 16 h [1, 6]	fraction unbound at 16 h [1, 7]	fraction unbound at 16 h [2]	fraction unbound at 16 h [3, 8]	fraction unbound at 16 h [3, 9]	concentration at 6 day (intra-operative) ([4]; read-out: Level in CSF (range)) [nM]	concentration at 6 day (intra-operative) ([4]; read-out: Median level in CSF) [nM]	Freeze-thaw stability, Accuracy ([5]; HQC 400.0 nM) [%]	Freeze-thaw stability, Mean concentration ([5]; HQC 400.0 nM) [nM]	Freeze-thaw stability, Difference ([5]; HQC 400.0 nM) [%]	Freeze-thaw stability, Accuracy ([5]; LQC 0.6 nM) [%]	Freeze-thaw stability, Mean concentration ([5]; LQC 0.6 nM) [nM]	Freeze-thaw stability, Difference ([5]; LQC 0.6 nM) [%]	Benchtop stability, Accuracy ([5]; HQC 400.0 nM) [%]	Benchtop stability, Mean concentration ([5]; HQC 400.0 nM) [nM]	Benchtop stability, Difference ([5]; HQC 400.0 nM) [%]	Benchtop stability, Accuracy ([5]; LQC 0.6 nM) [%]	Benchtop stability, Mean concentration ([5]; LQC 0.6 nM) [nM]	Benchtop stability, Difference ([5]; LQC 0.6 nM) [%]	Processed sample stability, Accuracy ([5]; HQC 400.0 nM) [%]	SMILES	other results
0.406	0.372	0.065	0.109	0.06	49.7 to 118	95.5	103.2	412.9	1.1	101.4	0.608	−7.9	101.7	406.7	−1.5	110.2	0.661	0.2	102.3	Cn1nccc1Nc1nccc(-c2cc3c(s2)C(C)(C)N(CCN2CCOCC2)C3=O)n1 [LY3214996]	Plasma protein binding (in words) ([1]; pooled human plasma): modest plasma protein binding; Plasma protein binding compared to binding to brain tissue components (ratio) [2]: at least 5.5 fold; Processed sample stability, Mean concentration ([5]; HQC 400.0 nM): 409.3 nM; Processed sample stability, Difference ([5]; HQC 400.0 nM): −0.9%; Processed sample stability, Accuracy ([5]; LQC 0.6 nM): 112.3%; Processed sample stability, Mean concentration ([5]; LQC 0.6 nM): 0.674 nM; Processed sample stability, Difference ([5]; LQC 0.6 nM): 2.1%; Autosampler stability (5 °C), Accuracy ([5]; HQC 400.0 nM): 105.2%; Autosampler stability (5 °C), Mean concentration ([5]; HQC 400.0 nM): 420.9 nM; Autosampler stability (5 °C), Difference ([5]; HQC 400.0 nM): 3.3%; Autosampler stability (5 °C), Accuracy ([5]; LQC 0.6 nM): 111.2%; Autosampler stability (5 °C), Mean concentration ([5]; LQC 0.6 nM): 0.667 nM; Autosampler stability (5 °C), Difference ([5]; LQC 0.6 nM): 4.4%; Long-term stability (−20 °C), Mean concentration ([5]; HQC 400.0 nM): 422.7 nM; Long-term stability (−20 °C), Difference ([5]; HQC 400.0 nM): 3.5%; Long-term stability (−20 °C), Accuracy ([5]; LQC 0.6 nM): 103.6%; Long-term stability (−20 °C), Mean concentration ([5]; LQC 0.6 nM): 0.622 nM; Long-term stability (−20 °C), Difference ([5]; LQC 0.6 nM): −5.9%
0.045	0.052	0.008	0.009	0.006	1.8 to 30.4	11.7	101.3	405.1	−6.8	98.3	0.590	−9.4	97.0	388.2	−5.9	102.4	0.614	6.9	100.2	Cc1nc2c(F)cc(-c3nc(Nc4ccc(CN5CCNCC5)cn4)ncc3F)cc2n1C(C)C [M2]	Plasma protein binding compared to binding to brain tissue components (ratio) [2]: at least 6.5 fold; Processed sample stability, Mean concentration ([5]; HQC 400.0 nM): 400.9 nM; Processed sample stability, Difference ([5]; HQC 400.0 nM): −2.8%; Processed sample stability, Accuracy ([5]; LQC 0.6 nM): 105.4%; Processed sample stability, Mean concentration ([5]; LQC 0.6 nM): 0.632 nM; Processed sample stability, Difference ([5]; LQC 0.6 nM): 10.0%; Autosampler stability (5 °C), Accuracy ([5]; HQC 400.0 nM): 105.4%; Autosampler stability (5 °C), Mean concentration ([5]; HQC 400.0 nM): 421.6 nM; Autosampler stability (5 °C), Difference ([5]; HQC 400.0 nM): 6.2%; Autosampler stability (5 °C), Accuracy ([5]; LQC 0.6 nM): 102.4%; Autosampler stability (5 °C), Mean concentration ([5]; LQC 0.6 nM): 0.615 nM; Autosampler stability (5 °C), Difference ([5]; LQC 0.6 nM): 13.5%; Long-term stability (−20 °C), Accuracy ([5]; HQC 400.0 nM): 103.4%; Long-term stability (−20 °C), Mean concentration ([5]; HQC 400.0 nM): 413.6 nM; Long-term stability (−20 °C), Difference ([5]; HQC 400.0 nM): −4.8%; Long-term stability (−20 °C), Accuracy ([5]; LQC 0.6 nM): 98.3%; Long-term stability (−20 °C), Mean concentration ([5]; LQC 0.6 nM): 0.590 nM; Long-term stability (−20 °C), Difference ([5]; LQC 0.6 nM): −9.5%
0.023	0.024	0.021	0.022	0.017	3.1 to 58.1	12.7	108.7	434.9	1.4	108.5	0.651	−1.5	93.7	375.0	−4.4	100.0	0.6	2.3	97.8	CCN1CCN(Cc2ccc(Nc3ncc(F)c(-c4cc(F)c5nc(CO)n(C(C)C)c5c4)n3)nc2)CC1 [M20]	Processed sample stability, Mean concentration ([5]; HQC 400.0 nM): 391.1 nM; Processed sample stability, Difference ([5]; HQC 400.0 nM): −0.2%; Processed sample stability, Accuracy ([5]; LQC 0.6 nM): 100.5%; Processed sample stability, Mean concentration ([5]; LQC 0.6 nM): 0.603 nM; Processed sample stability, Difference ([5]; LQC 0.6 nM): 2.7%; Autosampler stability (5 °C), Accuracy ([5]; HQC 400.0 nM): 100.3%; Autosampler stability (5 °C), Mean concentration ([5]; HQC 400.0 nM): 401.3 nM; Autosampler stability (5 °C), Difference ([5]; HQC 400.0 nM): 2.7%; Autosampler stability (5 °C), Accuracy ([5]; LQC 0.6 nM): 101.9%; Autosampler stability (5 °C), Mean concentration ([5]; LQC 0.6 nM): 0.612 nM; Autosampler stability (5 °C), Difference ([5]; LQC 0.6 nM): 10.3%; Long-term stability (−20 °C), Accuracy ([5]; HQC 400.0 nM): 112.0%; Long-term stability (−20 °C), Mean concentration ([5]; HQC 400.0 nM): 448.1 nM; Long-term stability (−20 °C), Difference ([5]; HQC 400.0 nM): 4.5%; Long-term stability (−20 °C), Accuracy ([5]; LQC 0.6 nM): 105.9%; Long-term stability (−20 °C), Mean concentration ([5]; LQC 0.6 nM): 0.635 nM; Long-term stability (−20 °C), Difference ([5]; LQC 0.6 nM): −3.9%

Reference: paper PMC9463526 (Journal of Pharmaceutical Analysis, 2022)
